Test results taken from paper PMC9658052, “Virtual Screening and Biological Activity Evaluation of New Potent Inhibitors Targeting Hexokinase-II” (Molecules, 2022).
Like-named read-outs stand apart in the source and are kept apart here.

How the values were obtained:
[1] = design: method as in PMID 20215500, PMID 16044218; details: mice, dose range from 500 mg/Kg to 2000 mg/Kg; cited from earlier work
HK-II = details: cited from earlier work
HeLa cells = assay: MTT cytotoxicity assay, HeLa; type: cell-based; details: Homo sapiens, 48 h, read-out: IC50 (toxicity) Hela
Description: (§1) Initially, we adopted the MTT assay to screen the cytotoxicity of all compounds toward three different types of cancer cell lines (HeLa, HepG 2 and A549). […] The chemical structures of the selected compounds are depicted in Figure 2.
(§2) HeLa, Hep G2, and A549 cells were purchased from the Shanghai Institute of Biochemistry and Cell Biology, Chinese Academy of Sciences. All cells were cultured in DMEM with 100 units/mL penicillin/streptomycin, 2 mM glutamine, and 10% FBS in a carbon dioxide atmosphere at 37 °C.
(§3) Cytotoxicity was quantified using a standard MTT assay, which is widely used in evaluating cell proliferation and screening for anticancer drugs. Briefly, following 7 × 10^3 cells incubating in 96-well plates for 48 h filled with DMEM medium supplemented with 10% fetal bovine serum (FBS) containing different concentrations of samples, 10 μL/well of MTT (5 mg/mL) was added. After 4 h of incubation at 37 °C, 100 μL of extraction buffer containing 5% iso-butanol, 0.1% HCl, and 10% SDS was added, and then the cells were incubated overnight. As controls, cells were treated with 0.1% (v/v) DMSO alone. The cell viability was calculated by the absorbance (570 nm) of each well obtained using a microplate reader (Thermo Scientific Multiskan GO, Vantaa, Finland).

HepG 2 cells = assay: MTT cytotoxicity assay, HepG 2; type: cell-based; details: Homo sapiens, HepG2, 48 h, read-out: IC50 (toxicity) HepG 2
Description: as §1, §2, §3

A549 cells = assay: MTT cytotoxicity assay, A549; type: cell-based; details: Homo sapiens, 48 h, read-out: IC50 (toxicity) A549
Description: as §1, §2, §3

Hexokinase-II enzyme = molecular target: T1, Hexokinase-II enzyme (Homo sapiens, UniProt P52789); assay: Hexokinase-II inhibitor screening kit (enzyme activity); type: biochemical; details: compound 1 to 128 μM
T1 construct: purchased Abcam ab211114
T1 sequence (P52789 1-917): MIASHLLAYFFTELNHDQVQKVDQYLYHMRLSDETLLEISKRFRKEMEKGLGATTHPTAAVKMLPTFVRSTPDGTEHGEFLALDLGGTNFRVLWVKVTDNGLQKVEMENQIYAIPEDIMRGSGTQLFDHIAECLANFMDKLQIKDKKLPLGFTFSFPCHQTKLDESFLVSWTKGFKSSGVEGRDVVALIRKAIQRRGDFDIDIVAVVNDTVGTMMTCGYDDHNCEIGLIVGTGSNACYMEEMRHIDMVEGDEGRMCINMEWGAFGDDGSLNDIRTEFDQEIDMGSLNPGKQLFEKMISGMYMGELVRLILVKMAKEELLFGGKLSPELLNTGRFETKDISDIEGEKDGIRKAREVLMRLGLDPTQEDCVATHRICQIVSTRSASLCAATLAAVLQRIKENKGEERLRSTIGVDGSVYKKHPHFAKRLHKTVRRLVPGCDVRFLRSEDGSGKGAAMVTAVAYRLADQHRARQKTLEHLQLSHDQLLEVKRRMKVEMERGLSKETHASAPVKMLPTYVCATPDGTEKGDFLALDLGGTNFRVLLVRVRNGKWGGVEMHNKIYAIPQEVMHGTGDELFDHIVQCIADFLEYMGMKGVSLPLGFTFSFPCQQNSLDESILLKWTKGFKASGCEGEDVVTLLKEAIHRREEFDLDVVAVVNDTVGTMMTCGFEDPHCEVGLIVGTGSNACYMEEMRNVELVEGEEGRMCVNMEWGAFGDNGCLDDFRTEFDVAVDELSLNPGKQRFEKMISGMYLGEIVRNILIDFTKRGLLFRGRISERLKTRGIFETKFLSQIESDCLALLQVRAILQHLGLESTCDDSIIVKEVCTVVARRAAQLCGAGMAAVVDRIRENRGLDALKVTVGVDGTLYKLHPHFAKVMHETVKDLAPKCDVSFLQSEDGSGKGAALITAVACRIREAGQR
Description: Since nine compounds display the highest cytotoxicity to three different cancer cells, we then verified the effects of the compounds on Hexokinase-II activity.
Figure 3 Inhibition of compounds 4244-3659 and K611-0094 on Hexokinase-II activity. […] All data were expressed as mean ± SE from three independent experiments. ** p < 0.01 vs. the control groups.
The Hexokinase-II activity was tested via a Hexokinase-II inhibitor screening kit (Abcam, Cambridge, UK, ab211114), and all experiments were carried out following the manufacturer’s instructions. […] HK assay buffer was treated as negative control, bromopyruvic acid was used for positive controls, and DMSO was used as a solvent control. The value of OD at 450 nm at 15 min and 25 min was recorded. IC50 values were calculated in GraphPad Prism 5.

[2] = 5 min at 25 °C preincubation, read-out: EC50, inhibitory effect on HK-II enzyme activity
[3] = read-out: IC50 on Hexokinase-II enzyme

IC50 (Hexokinase-II enzyme; [2])	Compound	IC50 (HeLa cells)	IC50 (HepG 2 cells)	IC50 (A549 cells)	further results
	O=CC[C@@H](O)[C@H](O)[C@H](O)CO [2-Deoxyglucose (2-DG), 2-Deoxyglucose]				therapeutic effect of a single agent [1]: no significant therapeutic effect
	O=C(O)C(=O)CBr [3-Bromopyruvate (3-BrPA), 3-Bromopyruvate]				inhibitory action against HK-II (HK-II): moderate inhibitory action
17.5 ± 1.4 µM	CN1C(=O)[C@](O)(CC(=O)c2cc(O)ccc2O)c2ccccc21 [4244-3659]	62.1 ± 2 µM	62.5 ± 2.1 µM	54.6 ± 2.6 µM	IC50 (Hexokinase-II enzyme; [3]): 17.5 ± 1.4 µM
	CCOC(=O)c1c(C)n(C)c2ccc(OC[C@H](O)CN[C@H](CC)CO)cc12 [6913-0012]	51.9 ± 1.5 µM	59 ± 0.2 µM	62.6 ± 0.7 µM	
	O=C(N/N=C/c1ccc(Cl)c(Cl)c1)c1cc(O)c(O)c(O)c1 [AK-968/41922716]	28.5 ± 1.9 µM	40 ± 0.2 µM	31 µM	
> 128 µM	O[C@H](CNCc1ccccc1)COc1cccc2ccccc12 [AO-423/13128074]	27.7 ± 0.6 µM	30 ± 1.4 µM	38.6 ± 0.8 µM	
104 ± 1.1 µM	Cc1ccc(C(C)C)c(OC[C@H](O)CNCc2ccccc2)c1 [AP-124/43383769]	25.1 ± 0.9 µM	23.3 µM	36.5 ± 0.4 µM	
	CC(=O)c1c(C)[nH]c2ccc(OC[C@@H](O)CNCCc3ccccc3)cc12 [D016-0099]	48.5 ± 1.2 µM	44.2 ± 0.6 µM	50.4 ± 0.3 µM	
> 128 µM	O=C(CSc1nc2c(sc3ccccc32)c(=O)n1Cc1cccnc1)Nc1ccc(O)c(O)c1 [K263-0793]	22.4 ± 1.4 µM	22.1 ± 0.9 µM	27.1 ± 1.4 µM	
45 ± 1.1 µM	Nc1nc(SCC(=O)Nc2cccc([N+](=O)[O-])c2)sc1C(=O)Nc1nccs1 [K611-0094]	47.8 ± 0.6 µM	57.9 ± 1.7 µM	48.8 ± 1.2 µM	IC50 (Hexokinase-II enzyme; [3]): 45 ± 1.1 µM
	CN(C)C(=N)N=C(N)N [metformin]				IC50 (HK-II; weak inhibitory effect, read-out: IC50 against HK-II): > 10000 µM
	€-4-Nitro-N′-(2,3,4-trihydroxybenzylidene)				IC50 (HK-II; read-out: enzyme activity (HK2 inhibitor)): 0.53 ± 0.13 µM
